Tests used:
[1] = test system: WT tau RNA duplex; experiment: NMR spectral analysis (WaterLOGSY, 1D, 2D NOESY) with WT tau duplex; format: binding
Procedure: Preparation of NMR Samples. Two duplex-forming oligoribonucleotides r (5′-[…]-3′ (SEQ ID NO: 3))+r(5′[…]-3′ (SEQ ID NO: 4)) were designed to mimic the stem of the tau wild type (WT) hairpin. Individual RNA oligonucleotides were combined in 400 μL of NMR Buffer [10 mM KH2PO4/K2HPO4, pH 6.0 and 0.5 mM EDTA] in H2O or 100% D2O with a final RNA duplex concentration of 15 μM for WaterLOGSY experiments, […] was added to 5% (v/v) to provide a lock signal. RNA samples were annealed by heating to 95° C. for 3 min, followed by slow cooling to room temperature before being added to Shigemi NMR tubes (Shigemi, Inc.). Compound of interest was added to a final compound: RNA molar ratio of 20.0 for WaterLOGSY experiments, 2.0 for 1D ^1H H2O experiments, and 1.5 for 2D ^1NOESY experiments.
NMR Spectroscopy. NMR spectra were acquired on Bruker Avance III 600 and 700 MHz spectrometers equipped with cryoprobes. WaterLOGSY spectra were acquired at 298 K, 1D NMR spectra of samples in 95% H2O/5% D2O were acquired at 283 K, and 2D NOESY spectra in 100% D2O were acquired at 308 K. For 1D spectra of samples in 95% H2O/5% D2O, an excitation sculpting sequence during acquisition suppressed the water signal. Proton chemical shifts were referenced internally to the frequency of water. WaterLOGSY and 1D ^1H spectra were processed using Bruker TopSpin and 2D NMR spectra were processed with NMRPipe^1 and assigned with SPARKY^2.

[2] = test system: DDPAC MAPT mini-gene pre-mRNA; experiment: Chem-CLIP / C-Chem-CLIP in HeLa cells transfected with DDPAC mini-gene; format: cell-based; details: HeLa, DDPAC mini-gene
Procedure: (§1) Measuring Cellular Occupancy by Chem-CLIP and C-Chem-CLIP. LAN5 cells were grown to ~80% confluency in 100 mm diameter dishes. HeLa cells were transfected as described in the Luciferase Reporter Assay to Study Exon 10 Alternative Splicing except they were re-plated in 100 mm diameter dishes and grown to ~80% confluency (~1 day). The cells were then treated with 1.5 μM of 3 or 4 for 12 h. For C-Chem-CLIP, dilutions of competing compounds 1 or 2 were pre-incubated with cells for 12 h prior to adding 3. After addition of 3, the cells were incubated for an additional 12 h. After the treatment period, whether for Chem-CLIP or C-Chem-CLIP studies, the cells were washed with 10 mL of 1×DPBS. Ice-cold 1×DPBS (10 mL) was then added to the plate followed by irradiation with 365 nm light in a UV Stratalinker 2400 (Stratagene). Cells were scraped with a cell scraper, transferred to a 15 mL conical vial, and collected by centrifugation. Total RNA was extracted using TRIzol LS Reagent (Invitrogen) per the manufacturer's protocol. […]
(§2) RT-qPCR was performed on RNA samples before and after pull-down as described in Real-Time Quantitative PCR to enable calculation of fold enrichment in the pulled down samples. Relative fold enrichment of tau pre-mRNA was measured using Equation 3: […]

[3] = test system: WT MAPT mini-gene pre-mRNA; experiment: Chem-CLIP / C-Chem-CLIP in HeLa cells transfected with WT mini-gene; format: cell-based; details: HeLa, WT mini-gene
Procedure: as §1, §2

[4] = test system: phosphorylated tau / NeuN positive neurons in cortex; experiment: Brain immunohistochemistry in htau mice (AT8, NeuN); format: in vivo, htau mouse; details: 100 mg/kg p.o. q.o.d.
Procedure: Brain Tissue Histology. Left brain hemispheres of htau mice were harvested for total RNA. Right brain hemispheres (unfrozen) of htau mice were stored in 10% neutral buffered formalin (VWR) for 48 h. Tissue processing, embedding, and sectioning were performed and generated by the Scripps Florida Histology Core. Briefly, tissue was embedded in paraffin using a Sakura Tissue-Tek VIP5 paraffin processor, sectioned at 4 μm, and then mounted on positively charged slides for further immunostaining. The slides were stained on a Leica BondMax Immunostaining platform with the following primary antibodies: AT8 (MN1020, Invitrogen; 1:100 dilution) and NeuN (MAB377B, Chemicon; 1:500 dilution). After the slides were washed three times with 1×DPBS, a DAB Substrate Kit (Vector Laboratories, Inc.) was used to detect the primary antibodies per the manufacturer's protocol. After staining was complete, the slides were dehydrated, cover-slipped with Cytoseal 60 (Thermo Scientific), and imaged with a Leica DMI3000 B upright fluorescent microscope using 20× or 60× objective. Quantification was performed in a blinded fashion using ImageJ in which positivity was identified as aggregates (purple staining of AT8 or brown staining of NeuN) with diameter over 20 μm and staining signal over 185 that were kept constant across all treatment groups.

## COc1cc(N)ncc1CCCN(C)CCCn1cnc2c3ccccc3n(C)c2c1=O [Compound 2, 3-(3-((3-(6-amino-4-methoxypyridin-3-yl)propyl)(methyl)amino)propyl)-5-methyl-3,5-dihydro-4H-pyrimido[5,4-b]indol-4-one]
[1]; 300 μM of 2, WT tau duplex, 298 K
  WaterLOGSY on addition of RNA: changed the sign of the NOE, resulting in the appearance of negative peaks
[1]; 0.5-2.0 equivalents of 2
  RNA 1D 1H (imino proton) spectrum on addition of compound: dose dependent changes in the RNA's 1D ^1H spectrum
[1]; 2D NOESY, 400 ms mixing time, 35° C.
  NOE between compound and RNA: A single NOE was observed from H5/H6 of the compound to G17H1′
[2]
  competition of the interaction of 3 with reporter: competed dose dependently
[3]
  competition of the interaction of 3 with reporter: competed dose dependently
[4]
  AT8 antibody immunoreactivity (phosphorylated tau): reduced antibody immunoreactivity throughout the cortex
  NeuN (neuron viability): enhanced

Source: patent publication US20260308158A1, “TARGETING RNAS ASSOCIATED WITH TAUOPATHIES WITH SMALL MOLECULES” (University of Florida Research Foundation, Incorporated, priority 2023, published 2026)
